Patent publication US10927141B2 (priority 2018, dated 2021)
Where “and” joins values, the source holds several entries; their conditions need not be identical. Equal entries are not always repeated. Where two headings read alike, the source gives them in different places.

What was measured:
[1] = type: physicochemical; conditions: 1 w
Description: For each salt, approximately 5 mg compound was added into an 8 mL glass vial with a multi-hole aluminum foil cap, and kept at 60° C., 40° C./75% RH for 1 week. […] Appearance by visual observation were recorded followed by purity assessment and XPRD data collection on the residual solids.

[2] = type: physicochemical

Row | Structure (SMILES) | Final purity ([1]; 40° C./75% RH) | XRPD patterns ([1]; 40° C./75% RH) | Final purity ([1]; 60° C.) | XRPD patterns ([1]; 60° C.) | Final purity ([2]; 1.2 million lux-hrs) | XRPD patterns ([2]; 1.2 million lux-hrs) | Final purity ([2]; Dark control) | XRPD patterns ([2]; Dark control) | XRPD pattern ([1]; 40° C./75% RH) | XRPD pattern ([1]; 60° C.) | XRPD pattern ([2]; 1.2 million lux-hrs) | XRPD pattern ([2]; Dark control)
1 | COCC1(O)CCC2(C)C(CCC3C2CCC2(C)C(C(=O)Cn4ccnc4)CCC32)C1.O=C(O)c1ccc2ccccc2c1O (stereo not drawn) [1-hydroxy-2-napthoate (Form A)] | 92.64 | Form A | 88.91 | Form A | 92.64 | Form A | 91.96 | Form A | – | – | – | –
2 | COC[C@@]1(O)CC[C@@]2(C)[C@@H](CC[C@@H]3[C@@H]2CC[C@]2(C)[C@@H](C(=O)Cn4ccnc4)CC[C@@H]32)C1.O=C1O[C@H]([C@@H](O)CO)C(O)=C1O [Ascorbate (Form A)] | 96.4 | Form A | 95.7 | Form A | 96.8 | Form A | 96.8 | Form A | – | – | – | –
3 | COC[C@@]1(O)CC[C@@]2(C)[C@@H](CC[C@@H]3[C@@H]2CC[C@]2(C)[C@@H](C(=O)Cn4ccnc4)CC[C@@H]32)C1.O=S(=O)(O)c1ccccc1 [Besylate (Form A)] | 98.3 | Form A | 98.3 | Form A | 98.7 | Form A | 98.4 | Form A | – | – | – | –
4 | COC[C@@]1(O)CC[C@@]2(C)[C@@H](CC[C@@H]3[C@@H]2CC[C@]2(C)[C@@H](C(=O)Cn4ccnc4)CC[C@@H]32)C1 [Compound 1, 3α-Hydroxy-3β-methoxymethyl-21-(1′-imidazolyl)-5α-pregnan-20-one] | 98.2 and 99.1 and 98.23 | Pattern A | 98.2 and 99.3 and 98.15 | Pattern A | 97.9 and 99.2 and 97.92 | Pattern A | 98.3 and 99.1 | Pattern A | Pattern A | Pattern A | Pattern A | Pattern A
5 | COCC1(O)CCC2(C)C(CCC3C2CCC2(C)C(C(=O)Cn4ccnc4)CCC32)C1.O=C(O)C(Cl)Cl (stereo not drawn) [Dichloroacetate (Form A)] | 98.0 | Form A | 96.3 | Form A | 96.4 | Form A | 97.3 | Form A | – | – | – | –
6 | CCS(=O)(=O)O.COCC1(O)CCC2(C)C(CCC3C2CCC2(C)C(C(=O)Cn4ccnc4)CCC32)C1 (stereo not drawn) [Ethanesulfonate (Form A)] | 98.0 | Form A | 98.2 | Form A | 97.7 | Form A | 97.4 | Form A | – | – | – | –
7 | COCC1(O)CCC2(C)C(CCC3C2CCC2(C)C(C(=O)Cn4ccnc4)CCC32)C1.O=C(O)c1cc(O)ccc1O (stereo not drawn) [Gentisate salt (Form A)] | 97.6 | Form A | 97.0 | Form A | 96.0 | Form A | 97.6 | Form A | – | – | – | –
8 | COCC1(O)CCC2(C)C(CCC3C2CCC2(C)C(C(=O)Cn4ccnc4)CCC32)C1.O=CC(O)C(O)C(O)C(O)C(=O)O (stereo not drawn) [Glucuronate (Form A)] | 98.0 | Form A | 96.7 | Form A | 97.5 | Form A | 97.5 | Form A | – | – | – | –
9 | COC[C@@]1(O)CC[C@@]2(C)[C@@H](CC[C@@H]3[C@@H]2CC[C@]2(C)[C@@H](C(=O)Cn4ccnc4)CC[C@@H]32)C1.Cl [Hydrochloride (Form A)] | 99.4 | Form A | 99.5 | Form A | 99.5 | Form A | 99.5 | Form A | – | – | – | –
10 | COCC1(O)CCC2(C)C(CCC3C2CCC2(C)C(C(=O)Cn4ccnc4)CCC32)C1.Cl (stereo not drawn) [Hydrochloride (Form B)] | 100.0 | – | 100.0 | Form B | 98.2 | Form B | 98.59 | Form B | – | – | – | –
11 | COCC1(O)CCC2(C)C(CCC3C2CCC2(C)C(C(=O)Cn4ccnc4)CCC32)C1.Cl (stereo not drawn) [Hydrochloride (Form C)] | 100.0 | Form C | 98.6 | Form C | 100.0 | Form C | 99.2 | Form C | – | – | – | –
12 | COCC1(O)CCC2(C)C(CCC3C2CCC2(C)C(C(=O)Cn4ccnc4)CCC32)C1.O=S(=O)(O)CCO (stereo not drawn) [Isethionate (Form A)] | 98.5 | Form A | 98.7 | Form A | 98.9 | Form A | 98.8 | Form A | – | – | – | –
13 | COCC1(O)CCC2(C)C(CCC3C2CCC2(C)C(C(=O)Cn4ccnc4)CCC32)C1.O=C(O)C(O)C(O)C(=O)O (stereo not drawn) [L(+)-Tartrate (Form A)] | 99.3 | Form A | 99.3 | Form A | 99.4 | Form A | 99.2 | Form A | – | – | – | –
14 | COC[C@@]1(O)CC[C@@]2(C)[C@@H](CC[C@@H]3[C@@H]2CC[C@]2(C)[C@@H](C(=O)Cn4ccnc4)CC[C@@H]32)C1.O=C(O)C(O)C(O)C(=O)O [L(+)-Tartrate (Form B)] | 99.2 | Form B | 99.2 | Form B | 99.3 | Form B | 99.2 | Form B | – | – | – | –
15 | COCC1(O)CCC2(C)C(CCC3C2CCC2(C)C(C(=O)Cn4ccnc4)CCC32)C1.O=C(O)CC(O)C(=O)O [L-Malate (Form A)] | 99.2 | Form A | 99.6 | Form A | 99.3 | Form A | 99.3 | Form A | – | – | – | –
16 | COC[C@@]1(O)CC[C@@]2(C)[C@@H](CC[C@@H]3[C@@H]2CC[C@]2(C)[C@@H](C(=O)Cn4ccnc4)CC[C@@H]32)C1.O=C(O)C[C@H](O)C(=O)O [L-Malate (Form B)] | 98.5 | – | 97.8 | Form B | 97.6 | Form B | 97.5 | Form B | – | – | – | –
17 | COC[C@@]1(O)CC[C@@]2(C)[C@@H](CC[C@@H]3[C@@H]2CC[C@]2(C)[C@@H](C(=O)Cn4ccnc4)CC[C@@H]32)C1.O=C(O)CC(=O)O [Malonate (Form A)] | 98.5 | Form A | 97.0 | Form A | 98.2 | Form A | 99.0 | Form A | – | – | – | –
